Data taken from the supplement of paper PMC12137928.
Structures can show the parent of a compound that is named as a salt.

System: HCT116
Conditions: 72 h
In short: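 After seeding at 250 cells per well in 1536-well plates, HCT116 cells were given 5 h to attach. CellTiter-Glo luminescence, scaled to 0% for vehicle and -100% for positive control, was pattern-corrected. Fitting with a four-parameter Hill model produced IC50 and maximal efficacy.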

Row | SMILES | IC50 cell viability (ICRF193 0 nM) [µM] | IC50 cell viability (ICRF193 200 nM) [µM]
1 | Cn1c(=O)c2[nH]cnc2n(C)c1=O [Theophyllamine] | > 45.8 | > 45.8
2 | CC1(C)O[C@@H]2C[C@H]3[C@@H]4C[C@H](F)C5=CC(=O)CC[C@]5(C)[C@H]4[C@@H](O)C[C@]3(C)[C@]2(C(=O)CO)O1 [Flurandrenolide] | > 45.8 | > 45.8
3 | O=C(O)c1ccccc1-c1c2ccc(=O)cc-2oc2cc(O)ccc12 [Fluorescein sodium] | > 45.8 | > 45.8
4 | COP(=S)(OC)Oc1ccc(SC)c(C)c1 [Fenthion] | > 45.8 | > 45.8
5 | COC1(O[C@H]2CC[C@H]3[C@@H]4CC[C@H]5C[C@@H]6S[C@@H]6C[C@]5(C)[C@H]4CC[C@]23C)CCCC1 [Mepitiostane (Contains ~15% 3a,4a-Epithio isomer)] | > 45.8 | > 45.8
6 | CC(CCc1ccc(O)cc1)NCC(O)c1ccc(O)cc1 (centres undefined) [RACTOPAMINE HYDROCHLORIDE] | > 45.8 | > 45.8
7 | O=c1c(O)c(-c2ccc(O)c(O)c2)oc2cc(O)cc(O)c12 [Quercetin] | > 45.8 | > 45.8
8 | Cc1cc(-c2ccc(/N=N/c3c(S(=O)(=O)O)cc4cc(S(=O)(=O)O)cc(N)c4c3O)c(C)c2)ccc1/N=N/c1c(S(=O)(=O)O)cc2cc(S(=O)(=O)O)cc(N)c2c1O [TRYPAN BLUE] | > 45.8 | > 45.8
9 | CN1CCC(=C2c3ccccc3CCc3cccnc32)CC1 [Azatadine] | > 45.8 | > 45.8
10 | FC(F)(F)c1cccc(C2=CCN(CCc3ccc4ccccc4c3)CC2)c1 [Xaliproden hydrochloride] | > 45.8 | > 45.8
11 | CC1(C)O[C@@H]2C[C@H]3[C@@H]4CCC5=CC(=O)CC[C@]5(C)[C@@]4(F)[C@@H](O)C[C@]3(C)[C@]2(C(=O)CCl)O1 [Halcinonide] | > 45.8 | > 45.8
12 | CC(=O)OCC(=O)[C@@]1(O)CC[C@H]2[C@@H]3CCC4=CC(=O)CC[C@]4(C)[C@H]3C(=O)C[C@@]21C [Cortisone acetate] | > 45.8 | > 45.8
13 | O=C(O)c1cc(=O)c2c(OCC(O)COc3cccc4oc(C(=O)O)cc(=O)c34)cccc2o1 [Sodium cromoglycate] | > 45.8 | > 45.8
14 | CO/N=C1\CN(c2nc3c(cc2F)c(=O)c(C(=O)O)cn3C2CC2)CC1CN (centres undefined) [Gemifloxacin mesylate] | > 45.8 | > 45.8
15 | COc1ccc(CC2c3cc(OC)c(OC)cc3CC[N+]2(C)CCC(=O)OCCCCCOC(=O)CC[N+]2(C)CCc3cc(OC)c(OC)cc3C2Cc2ccc(OC)c(OC)c2)cc1OC (centres undefined) [Atracurium besylate] | > 45.8 | > 45.8
16 | O=C1CC[C@@]2(O)[C@H]3Cc4ccc(O)c5c4[C@@]2(CCN3CC2CC2)[C@H]1O5 [Naltrexone hydrochloride] | > 45.8 | > 45.8
17 | Fc1cccc(Br)c1NC1=NCCN1 [ROMIFIDINE] | > 45.8 | > 45.8

More lines, now with the values ahead:

Row | IC50 cell viability (ICRF193 0 nM) [µM] | IC50 cell viability (ICRF193 200 nM) [µM] | SMILES
18 | > 45.8 | > 45.8 | CCN(CC)C(=O)c1cccc(C)c1 [DEET]
19 | > 45.8 | > 45.8 | COc1ccc(/C=C/C(=O)O)cc1 [4-Methoxycinnamic acid]
20 | > 45.8 | > 45.8 | CCOC(=O)C(C)(C)Oc1ccc(Cl)cc1 [Clofibrate]
21 | > 45.8 | > 45.8 | CN1[C@@H](CC(=O)c2ccccc2)CCC[C@H]1C[C@H](O)c1ccccc1 [LOBELINE HYDROCHLORIDE]
22 | > 45.8 | > 45.8 | COC(=O)Nc1nc2cc(Sc3ccccc3)ccc2[nH]1 [Fenbendazole]
23 | > 45.8 | > 45.8 | OC(CCN1CCCCC1)(c1ccccc1)C1CCCC1 (centres undefined) [Cycrimine Hydrochloride]
24 | > 45.8 | > 45.8 | COc1ccc2[nH]cc(CCNC(C)=O)c2c1 [Melatonin]
25 | > 45.8 | > 45.8 | CC(C)NCC(O)c1ccc(NS(C)(=O)=O)cc1 (centres undefined) [Sotalol]
26 | > 45.8 | > 45.8 | CNCC(O)c1ccc(OC(=O)C(C)(C)C)c(OC(=O)C(C)(C)C)c1 (centres undefined) [Dipivefrin hydrochloride]
27 | > 45.8 | > 45.8 | CC(C)NC[C@@H](O)COc1ccc(CC(N)=O)cc1 [R-(+)-Atenolol]
28 | > 45.8 | > 45.8 | CC(=O)SC[C@@H](C)C(=O)N1CCC[C@H]1C(=O)N[C@@H](Cc1ccccc1)C(=O)O [Alacepril]
29 | > 45.8 | > 45.8 | COc1ccccc1N1CCN(CCCNc2cc(=O)n(C)c(=O)n2C)CC1 [Urapidil hydrochloride]
30 | > 45.8 | > 45.8 | O=C1c2c(O)cccc2C([C@@H]2O[C@H](CO)[C@@H](O)[C@H](O)[C@H]2O)c2cc(CO)cc(O)c21 (some centres undefined) [ALOIN]
31 | > 45.8 | > 45.8 | CC(CN(C)C)C(C)(O)Cc1ccc(Cl)cc1 (centres undefined) [Clobutinol hydrochloride]
32 | > 45.8 | > 45.8 | Cc1cccc(C)c1N(CCCc1cccnc1)C(=O)C(C)N (centres undefined) [Ro 22-9194]
